Results from paper PMC7525662, “Preclinical dosimetry models and the prediction of clinical doses of novel positron emission tomography radiotracers” (Scientific Reports, 2020).
Marks after values point to notes of the source that are not given here.

How the values were obtained:
Parameters in all cases: species or system Sprague–Dawley rats
Conditions in all cases: rat, in vivo
[1] = Residence times normalised to human organ masses, FBP reconstruction
Experimental: PET studies were reconstructed using filtered-back projection (FBP) and Mediso’s iterative Tera-Tomo 3D reconstruction algorithm with the following settings: 4 iterations, 6 subsets, full detector model, normal regularization, spike filter on, voxel size 0.4 mm and 400‒600 keV energy window. PET data were corrected for randoms, scatter and attenuation. Time-activity curves for each source organ, whole-body and remainder of the body were plotted. […] Residence times (τ) were determined for each radiotracer in source organs, whole-body and remaining (any activity assigned to the whole-body but not assigned to a source organ). Each preclinical source organ’s τ was determined by calculating the area under its respective time-activity curve (activity normalised to the percentage maximum injected dose as a function of time) using the trapezoid method. […] From each individual animal, eight dosimetry models were constructed from all possible combinations of image reconstruction method (FBP or iterative), τ (non-normalised or normalised to human organ masses), and sex of phantom (male or female). Supplementary table 1. Scaling (normalisation) factors applied to residence times of PET radiotracers in male Sprague-Dawley rats to predict human adult residence times. […] Stabin et al. 2006 ^4); WB: Whole Body.

[2] = OLINDA/EXM predicted clinical doses: adult male phantom, non-normalised τ, FBP
Experimental: (§1) PET studies were reconstructed using filtered-back projection (FBP) and Mediso’s iterative Tera-Tomo 3D reconstruction algorithm with the following settings: 4 iterations, 6 subsets, full detector model, normal regularization, spike filter on, voxel size 0.4 mm and 400‒600 keV energy window. PET data were corrected for randoms, scatter and attenuation. Time-activity curves for each source organ, whole-body and remainder of the body were plotted. […] Residence times (τ) were determined for each radiotracer in source organs, whole-body and remaining (any activity assigned to the whole-body but not assigned to a source organ). Each preclinical source organ’s τ was determined by calculating the area under its respective time-activity curve (activity normalised to the percentage maximum injected dose as a function of time) using the trapezoid method. […] From each individual animal, eight dosimetry models were constructed from all possible combinations of image reconstruction method (FBP or iterative), τ (non-normalised or normalised to human organ masses), and sex of phantom (male or female).

[3] = OLINDA/EXM predicted clinical doses: adult female phantom, non-normalised τ, FBP
Experimental: as §1, with “female). Supplementary table 6. Predicted clinical absorbed organ doses and whole-body effective doses of PET radiotracers using non-normalised (preclinical) adult female source organ residence times from filtered backprojection reconstructions.” for “female).”

[4] = OLINDA/EXM predicted clinical doses: adult male phantom, normalised τ, FBP
Experimental: as §1

SMILES: O=C[C@H]([18F])[C@@H](O)[C@H](O)[C@H](O)CO [FDG, 2-deoxy-2-[^18F]fluoro-D-glucose]
- Normalised Residence Time (h), Average: Remaining [1]: 2.12 h
- Effective Dose (mSv/MBq), Average [2]: 5.79E-02 mSv/MBq
- Estimated Absorbed Dose of Organ, Average: Adrenals [2]: 1.22E-02 mGy/MBq
- Estimated Absorbed Dose of Organ, Average: Brain [2]: 4.36E-03 mGy/MBq
- Estimated Absorbed Dose of Organ, Average: Breasts [2]: 8.62E-03 mGy/MBq
- Estimated Absorbed Dose of Organ, Average: Gallbladder Wall [2]: 1.32E-02 mGy/MBq
- Estimated Absorbed Dose of Organ, Average: Heart Wall [2]: 1.51E-02 mGy/MBq
- Estimated Absorbed Dose of Organ, Average: Kidneys [2]: 2.01E-02§ mGy/MBq
- Estimated Absorbed Dose of Organ, Average: LLI Wall [2]: 2.39E-01† mGy/MBq
- Estimated Absorbed Dose of Organ, Average: Liver [2]: 8.09E-03 mGy/MBq
- Estimated Absorbed Dose of Organ, Average: Lungs [2]: 8.07E-03 mGy/MBq
- Estimated Absorbed Dose of Organ, Average: Muscle [2]: 1.35E-02 mGy/MBq
- Estimated Absorbed Dose of Organ, Average: Osteogenic Cells [2]: 1.76E-02 mGy/MBq
- Estimated Absorbed Dose of Organ, Average: Pancreas [2]: 1.32E-02 mGy/MBq
- Estimated Absorbed Dose of Organ, Average: Red Marrow [2]: 1.32E-02 mGy/MBq
- Estimated Absorbed Dose of Organ, Average: Skin [2]: 9.20E-03 mGy/MBq
- Estimated Absorbed Dose of Organ, Average: Small Intestine [2]: 2.21E-02 mGy/MBq
- Estimated Absorbed Dose of Organ, Average: Spleen [2]: 1.23E-02 mGy/MBq
- Estimated Absorbed Dose of Organ, Average: Stomach Wall [2]: 1.34E-02 mGy/MBq
- Estimated Absorbed Dose of Organ, Average: Testes [2]: 1.76E-02 mGy/MBq
- Estimated Absorbed Dose of Organ, Average: Thymus [2]: 1.07E-02 mGy/MBq
- Estimated Absorbed Dose of Organ, Average: Thyroid [2]: 1.05E-02 mGy/MBq
- Estimated Absorbed Dose of Organ, Average: Total Body [2]: 1.38E-02 mGy/MBq
- Estimated Absorbed Dose of Organ, Average: ULI Wall [2]: 1.76E-02 mGy/MBq
- Estimated Absorbed Dose of Organ, Average: Urinary Bladder Wall [2]: 3.23E-01‡ mGy/MBq
- Effective Dose (mSv/MBq), Average ± SD [3]: 7.08E-02 mSv/MBq
- Estimated Absorbed Dose of Organ, Average: Adrenals [3]: 1.56E-02 mGy/MBq
- Estimated Absorbed Dose of Organ, Average: Brain [3]: 5.39E-03 mGy/MBq
- Estimated Absorbed Dose of Organ, Average: Breasts [3]: 1.10E-02 mGy/MBq
- Estimated Absorbed Dose of Organ, Average: Gallbladder Wall [3]: 1.59E-02 mGy/MBq
- Estimated Absorbed Dose of Organ, Average: Heart Wall [3]: 1.95E-02 mGy/MBq
- Estimated Absorbed Dose of Organ, Average: Kidneys [3]: 2.28E-02 § mGy/MBq
- Estimated Absorbed Dose of Organ, Average: LLI Wall [3]: 2.63E-01 † mGy/MBq
- Estimated Absorbed Dose of Organ, Average: Liver [3]: 1.05E-02 mGy/MBq
- Estimated Absorbed Dose of Organ, Average: Lungs [3]: 1.03E-02 mGy/MBq
- Estimated Absorbed Dose of Organ, Average: Muscle [3]: 1.67E-02 mGy/MBq
- Estimated Absorbed Dose of Organ, Average: Osteogenic Cells [3]: 2.29E-02 mGy/MBq
- Estimated Absorbed Dose of Organ, Average: Ovaries [3]: 4.29E-02 mGy/MBq
- Estimated Absorbed Dose of Organ, Average: Pancreas [3]: 1.65E-02 mGy/MBq
- Estimated Absorbed Dose of Organ, Average: Red Marrow [3]: 1.64E-02 mGy/MBq
- Estimated Absorbed Dose of Organ, Average: Skin [3]: 1.14E-02 mGy/MBq
- Estimated Absorbed Dose of Organ, Average: Small Intestine [3]: 2.68E-02 mGy/MBq
- Estimated Absorbed Dose of Organ, Average: Spleen [3]: 1.55E-02 mGy/MBq
- Estimated Absorbed Dose of Organ, Average: Stomach Wall [3]: 1.66E-02 mGy/MBq
- Estimated Absorbed Dose of Organ, Average: Thymus [3]: 1.38E-02 mGy/MBq
- Estimated Absorbed Dose of Organ, Average: Thyroid [3]: 1.24E-02 mGy/MBq
- Estimated Absorbed Dose of Organ, Average: Total Body [3]: 1.72E-02 mGy/MBq
- Estimated Absorbed Dose of Organ, Average: ULI Wall [3]: 2.24E-02 mGy/MBq
- Estimated Absorbed Dose of Organ, Average: Urinary Bladder Wall [3]: 4.48E-01 ‡ mGy/MBq
- Estimated Absorbed Dose of Organ, Average: Uterus [3]: 4.34E-02 mGy/MBq
- Effective Dose (mSv/MBq), Average ± SD [4]: 2.62E-02 mSv/MBq
- Estimated Absorbed Dose of Organ, Average: Adrenals [4]: 1.23E-02 mGy/MBq
- Estimated Absorbed Dose of Organ, Average: Brain [4]: 8.73E-03 mGy/MBq
- Estimated Absorbed Dose of Organ, Average: Breasts [4]: 9.14E-03 mGy/MBq
- Estimated Absorbed Dose of Organ, Average: Gallbladder Wall [4]: 1.25E-02 mGy/MBq
- Estimated Absorbed Dose of Organ, Average: Heart Wall [4]: 3.82E-02 mGy/MBq
- Estimated Absorbed Dose of Organ, Average: Kidneys [4]: 1.43E-02 § mGy/MBq
- Estimated Absorbed Dose of Organ, Average: Liver [4]: 7.98E-03 mGy/MBq
- Estimated Absorbed Dose of Organ, Average: Lungs [4]: 1.48E-02 mGy/MBq
- Estimated Absorbed Dose of Organ, Average: Muscle [4]: 1.13E-02 mGy/MBq
- Estimated Absorbed Dose of Organ, Average: Osteogenic Cells [4]: 1.67E-02 mGy/MBq
- Estimated Absorbed Dose of Organ, Average: Pancreas [4]: 1.31E-02 mGy/MBq
- Estimated Absorbed Dose of Organ, Average: Red Marrow [4]: 1.11E-02 mGy/MBq
- Estimated Absorbed Dose of Organ, Average: Skin [4]: 8.54E-03 mGy/MBq
- Estimated Absorbed Dose of Organ, Average: Small Intestine [4]: 1.55E-02 mGy/MBq
- Estimated Absorbed Dose of Organ, Average: Spleen [4]: 1.20E-02 mGy/MBq
- Estimated Absorbed Dose of Organ, Average: Stomach Wall [4]: 1.26E-02 mGy/MBq
- Estimated Absorbed Dose of Organ, Average: Testes [4]: 1.22E-02 mGy/MBq
- Estimated Absorbed Dose of Organ, Average: Thymus [4]: 1.17E-02 mGy/MBq
- Estimated Absorbed Dose of Organ, Average: Thyroid [4]: 1.09E-02 ± 1.11E-03 mGy/MBq
- Estimated Absorbed Dose of Organ, Average: Total Body [4]: 1.17E-02 mGy/MBq
- Estimated Absorbed Dose of Organ, Average: ULI Wall [4]: 1.39E-02 mGy/MBq
- Estimated Absorbed Dose of Organ, Average: Urinary Bladder Wall [4]: 8.88E-02 ‡ mGy/MBq
